Experimental data taken from patent US4605649A, “Method of treatment of estrogen deficiency disease” (priority 1984, dated 1986).
Read-outs that look alike come from different tables or passages of the source.

Columns and labels:
[1] = system: renal clear cell carcinoma; test: In vivo carcinogenicity: renal clear-cell carcinoma in male Syrian hamsters
Description: (§1) Male Syrian hamsters, 3-4 weeks of age (Harlan/Sprague Dawley, Madison, Wis.), were given a 25 mg. s.c. implant consisting of 10% cholesterol and 90% estrogen. A second 25 mg. pellet of the same composition was implanted 106 days after the initial estrogen treatment. Estrogen treatment was carried out according to the procedure of Kirkman--National Cancer Institute Monograph, 2, 1-57 (1959). Control animals were left untreated. Two hundred twenty-four days after treatment with estrogens had begun, hamsters were weighed, killed, both testes were excised and their weights measured in grams. Data presented in Table 1 are the ranges of testes weights from four animals in each group. Weights are expressed as percentages of total body weights.
The carcinogenicity of the modified estrogens was measured in male Syrian hamsters in vivo. Estrogen, and estrogen alone, causes renal clear cell carcinoma in 100% of the male animal population when exposed to s.c. estrogen implants. This kidney tumor is estrogen-induced and estrogen-dependent for development and growth. Failure to resupply estrogen every three months or surgical removal of implants results in tumor regression within a few weeks. […] The spontaneous kidney tumor incidence in Syrian hamsters without estrogen treatment is very low. The above facts are fully discussed in Kirkman, Nat'l. Can. Inst. Monograph, 1, 1 (1959); McGregor et al., J. Nat'l. Can. Inst., 24, 1057 (1960) and Sirbasku et al., Endocrin., 98, 1260 (1976).
The protocol employed was that set out for determining estrogen activity in male hamsters according to Table 1 (in that the animals examined for tumors at 224 days were the source of the testes). In the carcinogenicity experiment, further groups of animals were examined at 279 and 345 days. The animals were decapitated, the kidneys were excised and inspected visually for the occurrence of renal celear-cell carcinoma. Sections were prepared of all kidneys and studied histologically. In the table, column 1 gives the name of the compound, column 2 the total number of animals, column 3, the number of dead or lost animals and columns 4, 5 and 6 results of histologic examination of animals at the specified time interval for renal clear-cell carcinoma.

[2] = system: catechol estrogen formation; conditions: cited from earlier work
[3] = system: estrogen receptor; conditions: relative to estradiol = 100; Heiman et al., J. Med. Chem., 23, 994 (1980); cited from earlier work
[4] = system: estrogen receptor; conditions: cytosol of hypothalamus-preoptic area, pituitary, uterus; Pfeiffer et al. (1982); cited from earlier work
[5] = system: testes of male Syrian hamsters; test: Testes weight of male hamsters after s.c. estrogen implant (estrogenicity); format: in vivo; conditions: for Range Of Testes Weight Of Male Hamsters: 25 mg s.c. pellet (90% estrogen), second pellet at 106 days, four animals per group
Description: In a second method, the weights of both testes of those male Syrian hamsters which were used in the in vivo carcinogenicity assay, were measured on the 224th day after s.c. implantation of 25 mg. pellets of estrogen. The weights were measured in grams (expressed as percent of total body weight).
as §1

[6] = system: estrogenic activity; conditions: catechol metabolites; cited from earlier work
[7] = system: protein or peptides; conditions: cited from earlier work
[8] = system: DNA; conditions: cited from earlier work
[9] = system: tumors in experimental animals; conditions: prolonged treatment; testes, endometrium, ovary, cervix, mammary and other tissues; cited from earlier work
[10] = 224 days after s.c. implantation of estrogen
[11] = 279 days after s.c. implantation of estrogen
[12] = 345 days after s.c. implantation of estrogen

Row | Structure (SMILES) | No. of Animals with Tumors/No. of Animals Examined [1, 10] | No. of Animals with Tumors/No. of Animals Examined [1, 11] | No. of Animals with Tumors/No. of Animals Examined [1, 12] | Range Of Testes Weight Of Male Hamsters ([5]; 224 days) | estrogenic activity [6] | tumor induction [9] | also measured
1 | C[C@]12CC[C@@H]3c4cc(F)c(O)cc4CC[C@H]3[C@@H]1CC[C@@H]2O [2-fluoro-β-estradiol, 2-fluoro-3,17β-estradiol] | 0/4 | 0/4 | 0/3 | 0.18-0.25 % Of Total Body Weight | – | – | potential for induced renal clear cell carcinomas ([1]; in words, compared with estradiol or 4-fluoro-β-estradiol at equal estrogen dosages): greatly decreased potential; carcinogenicity (conclusion) ([1]; in words, particular animal model): non-carcinogenic; catechol estrogen formation [2]: reduced catechol estrogen formation; estrogen receptor binding affinity, ratio of association constants (Ka compound/Ka estradiol)×100 [3]: 86; estrogen receptor affinity [4]: high receptor affinity; estrogenicity (conclusion) ([5]; in words, hamster model): highly estrogenic
2 | C[C@]12CC[C@@H]3c4cc(O)c(O)cc4CC[C@H]3[C@@H]1CC[C@@H]2O [2-hydroxyestradiol] | – | – | – | – | almost devoid of estrogenic activity | – | covalent binding to protein or peptides ([7]; in vitro): bind covalently; covalent binding to DNA ([8]; in vitro): bind covalently
3 | C[C@]12CC[C@@H]3c4cc(O)c(O)cc4CC[C@H]3[C@@H]1CCC2=O [2-hydroxyestrone] | – | – | – | – | almost devoid of estrogenic activity | – | covalent binding to protein or peptides [7]: bind covalently; covalent binding to DNA [8]: bind covalently
4 | C[C@]12CC[C@@H]3c4ccc(O)c(F)c4CC[C@H]3[C@@H]1CC[C@@H]2O [4-fluoro-β-estradiol] | 1/4 | 3/6 | 0/3 | 0.18-0.28 % Of Total Body Weight | – | – | animals judged histologically to be preneoplastic ([1]; 224 days): 2 of 4; catechol estrogen formation ([2]; Krey et al. (1983)): reduced catechol estrogen formation; estrogen receptor binding affinity, ratio of association constants (Ka compound/Ka estradiol)×100 [3]: 128; estrogen receptor affinity [4]: high receptor affinity
5 | C[C@]12CC[C@@H]3c4ccc(O)c(O)c4CC[C@H]3[C@@H]1CC[C@@H]2O [4-hydroxyestradiol] | – | – | – | – | almost devoid of estrogenic activity | – | covalent binding to protein or peptides ([7]; in vitro): bind covalently; covalent binding to DNA ([8]; in vitro): bind covalently
6 | C[C@]12CC[C@@H]3c4ccc(O)c(O)c4CC[C@H]3[C@@H]1CCC2=O [4-hydroxyestrone] | – | – | – | – | almost devoid of estrogenic activity | – | covalent binding to protein or peptides [7]: bind covalently; covalent binding to DNA [8]: bind covalently
7 | CC/C(=C(/CC)c1ccc(O)cc1)c1ccc(O)cc1 [DES, diethylstilbestrol] | – | – | – | – | – | increase the number of tumors | –
8 | C[C@]12CC[C@@H]3c4ccc(O)cc4CC[C@H]3[C@@H]1CC[C@@H]2O [estradiol] | 4/4 | 5/5 | 0/4 | 0.12-0.26 % Of Total Body Weight | – | induce tumors | testes weight relative to untreated hamsters ([5]; 224 days, shrinking to % of the weights of testes in untreated hamsters): approximately 10%
9 | C[C@]12CC[C@@H]3c4ccc(O)cc4CC[C@H]3[C@@H]1C[C@@H](O)[C@@H]2O [estriol] | – | – | – | – | – | induce tumors | –
10 | C[C@]12CC[C@@H]3c4ccc(O)cc4CC[C@H]3[C@@H]1CCC2=O [estrone] | – | – | – | – | – | induce tumors | –
